Where “and” joins values, the source holds several entries; their conditions need not be identical. Identical values can stand only once. Like-named read-outs stand apart in the source and are kept apart here.
Assays:
HT29 colon [1] = assay: MTT cell viability assay (GI50), HT29; assay type: cell-based, human; settings: for SCI: GI50 (MCF10A)/GI50 (HT29); for GI50: MTT
[2] = Reduction with ascorbic acid (AsA) followed by 1H-NMR and 1D-195Pt-NMR; assay type: physicochemical; settings: PBS, DMSO-d6, 37 °C; for Approximate Reduction Time Points T50%: time at which 50% of reduction occurs; for Approximate Reduction Time Points T100%: time at which 100% of reduction occurs
Protocol: The biological reductant selected for this study is AsA. Briefly, sequential ^1H-NMR experiments were performed for 1 h at 37 °C, proceeded by 1D-^195Pt-NMR at 400 and −2800 ppm (30 min per region). It is noteworthy that the purity of each complex was examined prior the reduction experiments ensuring that no traces of platinum(II) species were evident in the samples used. All complexes were dissolved in PBS and DMSO-d6, without the reductant. Preliminary 1D-^195Pt-NMR measurements were conducted at 37 °C at 400 and −2800 ppm. […] Upon treatment of the platinum(IV) complexes with AsA, there was considerable reduction observed in the ^1H-NMR and 1D-^195Pt-NMR spectra acquired (Figures S31–S36). Notable changes in chemical multiplicity were recorded in the ^1H-NMR reduction spectra of P-5B3A, 5-5B3A and 56-5B3A (Figures S31, S33 and S35), especially along the aromatic region. The estimated reduction time points for P-5B3A, 5-5B3A and 56-5B3A are also outlined in Table 3.
The reduction behaviour of P-5B3A, 5-5B3A and 56-5B3A was investigated using ^1H-NMR and 1D-^195Pt-NMR spectroscopy, using previously established methods.

[3] = tested on: non-tumour-derived MCF10A breast line; settings: for GI50: MCF10A non-tumour-derived breast, MTT
U87 glioblastoma [4] = assay: MTT cell viability assay (GI50), U87; assay type: cell-based, human; settings: for SCI: GI50 (MCF10A)/GI50 (U87); for GI50: U87 glioblastoma, MTT
H460 lung [5] = assay: MTT cell viability assay (GI50), H460; assay type: cell-based, human; settings: for SCI: GI50 (MCF10A)/GI50 (H460); for GI50: H460 lung, MTT
HT29 colon cells = assay: DCFDA cellular ROS production assay; assay type: cell-based, human; settings: GI50 drug concentration (TBHP 20 μM)
Protocol: All values are expressed as relative fluorescence units (RFU).
To evaluate the presence of ROS in treated cells, a DCFDA/H2DCFDA-cellular ROS Assay Kit (Abcam, Cambridge, MA, USA) was used, as previously described. A total of 25,000 cells/mL of HT29 cells in DMEM were seeded in 96-well plates. Cells were washed with 1X kit buffer, and then stained with 25 μM 2′,7′-dichlorofluorescein diacetate (DCFH-DA) and incubated for 45 min. DCFH-DA was then removed, and cells were then re-washed with 1X kit buffer, after which phenol red free media was added. Cells were then treated with a GI50 drug concentration for each complex. The plates were directly scanned to measure fluorescence (relative fluorescence units (RFU)) at the time points indicated the Glo-Max®-Multimode microplate reader (Promega Corporation, Alexandra, VIC, Australia) at an excitation/emission of 485/535 nm, which is directly correlated to the DCFH-DA that is deacetylated by cellular esterases and then oxidised by ROS to the fluorescent compound DCF. To generate the positive control (20 μM tert-butyl hydroperoxide (TBHP)), cells were washed with 1X kit buffer, and stained with DCFDA (25 μM) for 45 min; this was removed and TBHP was added in phenol red free media, and the resulting solution was scanned as described above.

A431 skin = tested on: A431 skin; parameters: method as in PMID 36142383, PMID 37173934, PMID 36296713; settings: cited from earlier work
MCF-7 breast = tested on: MCF-7 breast; parameters: method as in PMID 36142383, PMID 37173934, PMID 36296713; settings: cited from earlier work
H460 lung [6] = tested on: H460 lung; parameters: method as in PMID 36142383, PMID 37173934, PMID 36296713; settings: cited from earlier work
[7] = tested on: cisplatin-resistant ADDP ovarian variant; parameters: method as in PMID 36142383, PMID 37173934, PMID 36296713; settings: cited from earlier work
U87 glioblastoma [8] = tested on: U87 glioblastoma; parameters: method as in PMID 36142383, PMID 37173934, PMID 36296713; settings: cited from earlier work
SJ-G2 glioblastoma = tested on: SJ-G2 glioblastoma; parameters: method as in PMID 36142383, PMID 37173934, PMID 36296713; settings: cited from earlier work
A2780 ovarian = tested on: A2780 ovarian; parameters: method as in PMID 36142383, PMID 37173934, PMID 36296713; settings: cited from earlier work
MIA pancreas = tested on: MIA pancreas; parameters: method as in PMID 36142383, PMID 37173934, PMID 36296713; settings: cited from earlier work
Du145 prostate = tested on: Du145 prostate; parameters: method as in PMID 36142383, PMID 37173934, PMID 36296713; settings: cited from earlier work
BE2-C neuroblastoma = tested on: BE2-C neuroblastoma; parameters: method as in PMID 36142383, PMID 37173934, PMID 36296713; settings: cited from earlier work
HT29 colon [9] = tested on: HT29 colon; parameters: method as in PMID 36142383, PMID 37173934, PMID 36296713; settings: cited from earlier work
[10] = tested on: multiple human cell lines; parameters: method as in PMID 36142383, PMID 37173934, PMID 36296713; settings: average over all cell lines; cited from earlier work
[11] = tested on: non-tumour-derived MCF10A breast line; parameters: method as in PMID 36142383, PMID 37173934, PMID 36296713; settings: cited from earlier work

Molecule	SCI (HT29 colon [1])	fold more potent than cisplatin (HT29 colon [1]; HT29 colon, GI50 ratio)	GI50 (HT29 colon [1]; HT29 colon)	Approximate Reduction Time Points T50% [2]	Approximate Reduction Time Points T100% [2]	GI50 [3]	SCI (U87 glioblastoma [4])	GI50 (U87 glioblastoma [4])	SCI (H460 lung [5])	GI50 (H460 lung [5])	ROS Production (HT29 colon cells; 24 h, control 60 ± 3)	ROS Production (HT29 colon cells; 48 h, control 63 ± 4)	ROS Production (HT29 colon cells; 72 h, control 85 ± 6)	further results
[Pt^IV(phen)(SS-DACH)(5B3A)(OH)]^2+ [P-5B3A]	1.40	at least 57 fold	200 ± 27 nM	10 to 15 min	60 min	280 ± 39 nM	0.15	1900 ± 150 nM	0.65	430 ± 50 nM	156 RFU and 156 ± 16 RFU	214 RFU and 214 ± 12 RFU	246 ± 11 RFU	fold more potent than carboplatin (HT29 colon [1]; HT29 colon, GI50 ratio): ≥ 250 fold; fold more potent than oxaliplatin (HT29 colon [1]; HT29 colon, GI50 ratio): ≥ 5 fold; fold difference in cytotoxicity versus PHENSS [3]: 0.9 fold
N.N.[Cl][Pt][Cl] [Cisplatin, cis-diammineplatinum(II) dichloride]	0.46	–	–	–	–	–	1.37	–	5.78	–	265 ± 19 RFU	299 ± 22 RFU	364 ± 18 RFU	GI50 (A431 skin): 2400 ± 300 nM; GI50 (MCF-7 breast): 6500 ± 800 nM; GI50 (H460 lung [6]): 900 ± 200 nM; GI50 [7]: 28000 nM; GI50 (U87 glioblastoma [8]): 3800 ± 1100 nM; GI50 (SJ-G2 glioblastoma): 400 ± 100 nM; GI50 (A2780 ovarian): 1000 ± 100 nM; GI50 (MIA pancreas): 7500 ± 1300 nM; GI50 (Du145 prostate): 1200 ± 100 nM; GI50 (BE2-C neuroblastoma): 1900 ± 200 nM; GI50 (HT29 colon [9]): 11300 nM; GI50 [10]: 5840 ± 610 nM; GI50 [11]: 5200 ± 520 nM
[Pt^IV(5,6-Me2phen)(SS-DACH)(5B3A)(OH)]^2+ [56-5B3A]	0.75	–	4.4 ± 1.6 nM	0 to 5 min	10 min	3.3 ± 0.9 nM	0.04	88 ± 7 nM	0.42	7.8 ± 2.2 nM	274 RFU and 274 ± 9 RFU	418 RFU and 418 ± 15 RFU	474 ± 10 RFU	–
[Pt^IV(5-Mephen)(SS-DACH)(5B3A)(OH)]^2+ [5-5B3A]	1.06	~630 fold	18 ± 0.67 nM	5 to 10 min	30 min	19 ± 1.5 nM	0.08	240 ± 23 nM	0.63	30 ± 3 nM	160 RFU and 160 ± 11 RFU	230 RFU and 230 ± 9 RFU	315 RFU and 315 ± 14 RFU	–

Reference: paper PMC10888562 (International Journal of Molecular Sciences, 2024)
